# The supplement of paper PMC10307832
# What was measured:
# Assay in all cases: relative viability (nuclei count vs DMSO), 5 days (fraction); higher = more cells survive
# NCI-H2126 = test system: NCI-H2126
# In short: (§1)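 The day after seeding in 1536-well plates, lung cancer cell lines were treated by pin tool with a single drug, or with a fixed anchor-drug dose together with five library-drug doses (not always all listed) in √10 steps. After 5 days, a combined fix-and-stain solution (final 0.05% Triton X-100, 1% formaldehyde, 1 ug/ml Hoechst) was added. Nuclei counted on 4× images gave relative viability as treated counts over vehicle counts, reported as the median of duplicate plates.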
# NCI-H1666 = test system: NCI-H1666
# In short: as §1
# SK-LU-1 = test system: SK-LU-1
# In short: as §1
# LK-2 = test system: LK-2
# In short: as §1
# LU99A = test system: LU99A
# In short: as §1
# LCLC-103H = test system: LCLC-103H
# In short: as §1
# EKVX = test system: EKVX
# In short: as §1
# NCI-H1563 = test system: NCI-H1563
# In short: as §1
# NCI-H23 = test system: NCI-H23
# In short: as §1
# NCI-H2405 = test system: NCI-H2405
# In short: as §1
# NCI-H1975 = test system: NCI-H1975
# In short: as §1
# LXF-289 = test system: LXF-289
# In short: as §1
# EPLC-272H = test system: EPLC-272H
# In short: as §1
# HCC-827 = test system: HCC-827
# In short: as §1
# HCC-78 = test system: HCC-78
# In short: as §1
# RERF-LC-KJ = test system: RERF-LC-KJ
# In short: as §1
# SW 1573 = test system: SW 1573
# In short: as §1
# EMC-BAC-2 = test system: EMC-BAC-2
# In short: as §1
# NCI-H322M = test system: NCI-H322M
# In short: as §1
# PC-14 = test system: PC-14
# In short: as §1
compound,measurement,setting,value
CCN(CC)CCCCNc1ncc2cc(-c3cc(OC)cc(OC)c3)c(NC(=O)NC(C)(C)C)nc2n1 + C[C@]1(O)C[C@@H](c2nc(-c3ccc4ccc(-c5ccccc5)nc4c3)c3c(N)nccn32)C1 [Linsitinib] (partner 1 µM),relative viability,NCI-H2126; first compound 0.01 µM,0.725
same,relative viability,NCI-H2126; first compound 0.03162 µM,0.712
same,relative viability,NCI-H2126; first compound 0.1 µM,0.794
same,relative viability,NCI-H2126; first compound 0.3162 µM,0.674
same,relative viability,NCI-H2126; first compound 1 µM,0.708
same,relative viability,NCI-H1666; first compound 0.01 µM,1.04
same,relative viability,NCI-H1666; first compound 0.03162 µM,0.674
same,relative viability,NCI-H1666; first compound 0.1 µM,0.997
same,relative viability,NCI-H1666; first compound 0.3162 µM,0.944
same,relative viability,NCI-H1666; first compound 1 µM,0.726
same,relative viability,SK-LU-1; first compound 0.01 µM,1.24
same,relative viability,SK-LU-1; first compound 0.03162 µM,1.1
same,relative viability,SK-LU-1; first compound 0.1 µM,1.4
same,relative viability,SK-LU-1; first compound 0.3162 µM,1.49
same,relative viability,SK-LU-1; first compound 1 µM,0.988
same,relative viability,LK-2; first compound 0.01 µM,0.536
same,relative viability,LK-2; first compound 0.03162 µM,0.339
same,relative viability,LK-2; first compound 0.1 µM,0.401
same,relative viability,LK-2; first compound 0.3162 µM,0.356
same,relative viability,LK-2; first compound 1 µM,0.17
same,relative viability,LU99A; first compound 0.01 µM,0.557
same,relative viability,LU99A; first compound 0.03162 µM,0.565
same,relative viability,LU99A; first compound 0.1 µM,0.565
same,relative viability,LU99A; first compound 0.3162 µM,0.583
same,relative viability,LU99A; first compound 1 µM,0.517
same,relative viability,LCLC-103H; first compound 0.01 µM,1.17
same,relative viability,LCLC-103H; first compound 0.03162 µM,1.11
same,relative viability,LCLC-103H; first compound 0.1 µM,1.2
same,relative viability,LCLC-103H; first compound 0.3162 µM,1.09
same,relative viability,LCLC-103H; first compound 1 µM,1.15
same,relative viability,EKVX; first compound 0.01 µM,1.11
same,relative viability,EKVX; first compound 0.03162 µM,1.1
same,relative viability,EKVX; first compound 0.1 µM,0.93
same,relative viability,EKVX; first compound 0.3162 µM,1.09
same,relative viability,EKVX; first compound 1 µM,0.883
same,relative viability,NCI-H1563; first compound 0.01 µM,1.29
same,relative viability,NCI-H1563; first compound 0.03162 µM,1.34
same,relative viability,NCI-H1563; first compound 0.1 µM,1.13
same,relative viability,NCI-H1563; first compound 0.3162 µM,1.09
same,relative viability,NCI-H1563; first compound 1 µM,0.889
same,relative viability,NCI-H23; first compound 0.01 µM,0.669
same,relative viability,NCI-H23; first compound 0.03162 µM,0.63
same,relative viability,NCI-H23; first compound 0.1 µM,0.644
same,relative viability,NCI-H23; first compound 0.3162 µM,0.601
same,relative viability,NCI-H23; first compound 1 µM,0.516
same,relative viability,NCI-H2405; first compound 0.01 µM,0.76
same,relative viability,NCI-H2405; first compound 0.03162 µM,0.862
same,relative viability,NCI-H2405; first compound 0.1 µM,0.863
same,relative viability,NCI-H2405; first compound 0.3162 µM,1.03
same,relative viability,NCI-H2405; first compound 1 µM,0.817
same,relative viability,NCI-H1975; first compound 0.01 µM,0.976
same,relative viability,NCI-H1975; first compound 0.03162 µM,0.949
same,relative viability,NCI-H1975; first compound 0.1 µM,1.11
same,relative viability,NCI-H1975; first compound 0.3162 µM,1.01
same,relative viability,NCI-H1975; first compound 1 µM,0.856
same,relative viability,LXF-289; first compound 0.01 µM,0.974
same,relative viability,LXF-289; first compound 0.03162 µM,1.02
same,relative viability,LXF-289; first compound 0.1 µM,1.03
same,relative viability,LXF-289; first compound 0.3162 µM,0.972
same,relative viability,LXF-289; first compound 1 µM,0.843
same,relative viability,EPLC-272H; first compound 0.01 µM,1.26
same,relative viability,EPLC-272H; first compound 0.1 µM,1.1
same,relative viability,EPLC-272H; first compound 0.3162 µM,1.32
same,relative viability,EPLC-272H; first compound 1 µM,1.17
same,relative viability,HCC-827; first compound 0.01 µM,0.933
same,relative viability,HCC-827; first compound 0.03162 µM,0.987
same,relative viability,HCC-827; first compound 0.1 µM,1.01
same,relative viability,HCC-827; first compound 0.3162 µM,0.982
same,relative viability,HCC-827; first compound 1 µM,0.961
same,relative viability,HCC-78; first compound 0.03162 µM,0.55
same,relative viability,HCC-78; first compound 0.1 µM,0.497
same,relative viability,HCC-78; first compound 0.3162 µM,0.593
same,relative viability,HCC-78; first compound 1 µM,0.415
same,relative viability,RERF-LC-KJ; first compound 0.01 µM,0.891
same,relative viability,RERF-LC-KJ; first compound 0.03162 µM,0.961
same,relative viability,RERF-LC-KJ; first compound 0.1 µM,1.04
same,relative viability,RERF-LC-KJ; first compound 0.3162 µM,1.01
same,relative viability,RERF-LC-KJ; first compound 1 µM,0.887
same,relative viability,SW 1573; first compound 0.01 µM,0.811
same,relative viability,SW 1573; first compound 0.03162 µM,0.785
same,relative viability,SW 1573; first compound 0.1 µM,0.892
same,relative viability,SW 1573; first compound 0.3162 µM,0.734
same,relative viability,SW 1573; first compound 1 µM,0.789
same,relative viability,EMC-BAC-2; first compound 0.01 µM,0.873
same,relative viability,EMC-BAC-2; first compound 0.03162 µM,0.836
same,relative viability,EMC-BAC-2; first compound 0.1 µM,0.821
same,relative viability,EMC-BAC-2; first compound 0.3162 µM,0.838
same,relative viability,EMC-BAC-2; first compound 1 µM,0.771
same,relative viability,NCI-H322M; first compound 0.01 µM,0.99
same,relative viability,NCI-H322M; first compound 0.03162 µM,0.875
same,relative viability,NCI-H322M; first compound 0.1 µM,0.938
same,relative viability,NCI-H322M; first compound 0.3162 µM,0.982
same,relative viability,NCI-H322M; first compound 1 µM,0.891
same,relative viability,PC-14; first compound 0.01 µM,1.01
same,relative viability,PC-14; first compound 0.03162 µM,1.03
same,relative viability,PC-14; first compound 0.1 µM,1.02
same,relative viability,PC-14; first compound 0.3162 µM,1.09
same,relative viability,PC-14; first compound 1 µM,0.885
COc1nc(C)cnc1NS(=O)(=O)c1cccnc1-c1ccc(-c2nnco2)cc1 [Zibotentan] + CS(=O)(=O)CCNCc1ccc(-c2ccc3ncnc(Nc4ccc(OCc5cccc(F)c5)c(Cl)c4)c3c2)o1 [Lapatinib] (partner 2 µM),relative viability,NCI-H2126; first compound 0.08 µM,0.79
same,relative viability,NCI-H2126; first compound 0.253 µM,0.724
same,relative viability,NCI-H2126; first compound 0.8 µM,0.662
same,relative viability,NCI-H2126; first compound 2.53 µM,0.779
same,relative viability,NCI-H1666; first compound 0.08 µM,0.63
same,relative viability,NCI-H1666; first compound 0.253 µM,0.435
same,relative viability,NCI-H1666; first compound 0.8 µM,0.495
same,relative viability,NCI-H1666; first compound 2.53 µM,0.688
same,relative viability,SK-LU-1; first compound 0.08 µM,0.831
same,relative viability,SK-LU-1; first compound 0.253 µM,0.766
same,relative viability,SK-LU-1; first compound 0.8 µM,0.928
same,relative viability,SK-LU-1; first compound 2.53 µM,0.878
same,relative viability,LK-2; first compound 0.08 µM,1.02
same,relative viability,LK-2; first compound 0.253 µM,0.885
same,relative viability,LK-2; first compound 0.8 µM,0.917
same,relative viability,LK-2; first compound 2.53 µM,0.986
same,relative viability,LU99A; first compound 0.08 µM,1.02
same,relative viability,LU99A; first compound 0.253 µM,1.01
same,relative viability,LU99A; first compound 0.8 µM,1.05
same,relative viability,LU99A; first compound 2.53 µM,0.949
same,relative viability,EKVX; first compound 0.08 µM,0.184
same,relative viability,EKVX; first compound 0.253 µM,0.216
same,relative viability,EKVX; first compound 0.8 µM,0.194
same,relative viability,EKVX; first compound 2.53 µM,0.198
same,relative viability,NCI-H1563; first compound 0.08 µM,0.993
same,relative viability,NCI-H1563; first compound 0.253 µM,0.535
same,relative viability,NCI-H1563; first compound 0.8 µM,0.905
same,relative viability,NCI-H1563; first compound 2.53 µM,0.958
same,relative viability,NCI-H23; first compound 0.08 µM,1.22
same,relative viability,NCI-H23; first compound 0.253 µM,0.987
same,relative viability,NCI-H23; first compound 0.8 µM,1.19
same,relative viability,NCI-H23; first compound 2.53 µM,1.26
same,relative viability,NCI-H2405; first compound 0.08 µM,1.18
same,relative viability,NCI-H2405; first compound 0.253 µM,0.84
same,relative viability,NCI-H2405; first compound 0.8 µM,1.06
same,relative viability,NCI-H2405; first compound 2.53 µM,1.09
same,relative viability,NCI-H1975; first compound 0.08 µM,0.837
same,relative viability,NCI-H1975; first compound 0.253 µM,0.8
same,relative viability,NCI-H1975; first compound 0.8 µM,0.781
same,relative viability,NCI-H1975; first compound 2.53 µM,0.884
same,relative viability,LXF-289; first compound 0.08 µM,0.873
same,relative viability,LXF-289; first compound 0.253 µM,0.886
same,relative viability,LXF-289; first compound 0.8 µM,0.93
same,relative viability,LXF-289; first compound 2.53 µM,0.878
same,relative viability,EPLC-272H; first compound 0.08 µM,0.982
same,relative viability,EPLC-272H; first compound 0.253 µM,0.894
same,relative viability,EPLC-272H; first compound 0.8 µM,0.919
same,relative viability,EPLC-272H; first compound 2.53 µM,0.869
same,relative viability,HCC-827; first compound 0.08 µM,0.157
same,relative viability,HCC-827; first compound 0.253 µM,0.191
same,relative viability,HCC-827; first compound 0.8 µM,0.214
same,relative viability,HCC-827; first compound 2.53 µM,0.223
same,relative viability,HCC-78; first compound 0.08 µM,0.844
same,relative viability,HCC-78; first compound 0.253 µM,0.701
same,relative viability,HCC-78; first compound 0.8 µM,0.847
same,relative viability,HCC-78; first compound 2.53 µM,0.788
same,relative viability,RERF-LC-KJ; first compound 0.08 µM,0.89
same,relative viability,RERF-LC-KJ; first compound 0.253 µM,0.807
same,relative viability,RERF-LC-KJ; first compound 0.8 µM,0.878
same,relative viability,RERF-LC-KJ; first compound 2.53 µM,0.845
same,relative viability,SW 1573; first compound 0.08 µM,1.18
same,relative viability,SW 1573; first compound 0.253 µM,1.11
same,relative viability,SW 1573; first compound 0.8 µM,1.2
same,relative viability,SW 1573; first compound 2.53 µM,1.14
same,relative viability,EMC-BAC-2; first compound 0.08 µM,0.958
same,relative viability,EMC-BAC-2; first compound 0.253 µM,0.805
same,relative viability,EMC-BAC-2; first compound 0.8 µM,0.873
same,relative viability,EMC-BAC-2; first compound 2.53 µM,0.858
same,relative viability,NCI-H322M; first compound 0.08 µM,0.553
same,relative viability,NCI-H322M; first compound 0.253 µM,0.621
same,relative viability,NCI-H322M; first compound 0.8 µM,0.582
same,relative viability,NCI-H322M; first compound 2.53 µM,0.624
same,relative viability,PC-14; first compound 0.08 µM,0.322
same,relative viability,PC-14; first compound 0.253 µM,0.314
same,relative viability,PC-14; first compound 0.8 µM,0.344
same,relative viability,PC-14; first compound 2.53 µM,0.348
